Reference: paper PMC7687008, “Small molecule inhibitors provide insights into the relevance of LAT1 and LAT2 in materno‐foetal amino acid transport” (Journal of Cellular and Molecular Medicine, 2020)
Where “and” joins values, the source holds several entries; their conditions need not be identical. Identical values can stand only once. Entries after “also recorded” stand apart in the source; their conditions may differ. Like-named read-outs stand apart in the source and are kept apart here.

Experiments:
[1] = tested on: LAT1/LAT2 (System L transporters) in BeWo-STB cells; assay: Leucine uptake inhibition in BeWo-STB (forskolin-differentiated BeWo cells), Na+-free buffer, 3H-leucine; assay type: cell-based, human; settings: for EC50 / inhibition of leucine uptake: BeWo-STB; for EC50: 3 min; for inhibition of leucine uptake: 10 µmol/L inhibitor; for residual leucine uptake: 10 µM
Protocol: (§1) BeWo cells (clone b30) were cultured in DMEM containing 1.0 g/L glucose (DMEM‐lowGlucose; Gibco). […] Cells were cultured in DMEM‐lowGlucose at 37°C with 5% CO2 atmosphere for 7‐14 days.
JPH203, JG336 and JX009 were synthesized following the routes described in the European Patent Application EP 2‐959‐918‐A1, 2014. Compounds were obtained as hydrochlorides, dissolved in dimethyl sulfoxide (DMSO, Merck, Darmstadt, Germany) and applied in the concentration range from 0.001 to 31.6 μmol/L. JPH203 has been characterized as highly LAT1‐specific; JX009 is described as LAT1 and LAT2‐specific inhibitor. ^37 JG336 is a derivate of JPH203 with an additional methoxy group at the peripheral phenyl moiety residue. Compound structures are depicted in Figure 4. The ^1H‐NNMR and ^13C‐NMR spectra data of the compounds were in agreement with the expected structures and are included in the Supporting Information.
FIGURE 4 Inhibition of leucine uptake in BeWo cells using small molecule inhibitors with different specificities. Dose‐response experiments in BeWo‐cytotrophoblasts (BeWo‐CTB) and forskolin‐stimulated BeWo‐syncytiotrophoblasts (BeWo‐STB) for the established LAT1‐specific inhibitor JPH203 (A) and for the alternative compound JG336 which carries an additional methoxy group as marked in the dashed red box (B). […] BCH is a widely accepted inhibitor blocking all System L mediated transport. […] (A‐C) The new inhibitors JG336 and JX009 as well as JPH203 reached maximal inhibition (first concentration without significant difference to the bottom value) at a concentration of 10 µmol/L, JG336 required 1 µmol/L for maximal inhibition in BeWo‐CTB. BCH reached maximal inhibition at 1 mmol/L in both differentiation stages. […] Dose‐response kinetics were calculated using the nonlinear four‐parameter model [Y = Bottom + (Top − Bottom)/(1 + 10^((LogEC50‐X)*HillSlope))] and ordinary fit with GraphPad Prism software.

[2] = target: LAT1/LAT2 (System L transporters) in BeWo-CTB cells (Homo sapiens, UniProt Q01650); assay: Leucine uptake inhibition in BeWo-CTB (undifferentiated BeWo cells), Na+-free buffer, 3H-leucine; assay type: cell-based; settings: for EC50: 3 min
[3] = target: SLC7 transporters in HT-29 cells (Homo sapiens, UniProt Q01650); assay: Leucine uptake inhibition in HT-29 cells; settings: for EC50: EC50 of leucine uptake inhibition, Na+-free Hanks buffer
[4] = tested on: LAT1/LAT2 (System L transporters) in polarized BeWo monolayer; assay: Leucine transfer across polarized BeWo monolayer (Transwell), apical to basal, and intracellular leucine content; assay type: cell-based, human
Protocol: as §1
Before starting the transfer experiment, the formation of a tight trophoblast monolayer in BeWo cells was monitored by measuring transepithelial electrical resistance (TEER, [Ω*cm^2]) and passive diffusion as reported previously. ^38 TEER and cellular capacitance (Ccl, [µF/cm^2]) were measured every 30 minutes and analysed using the cellZscope system (nanoAnalytics, Münster, Germany) according to the manufacturer's instructions. The apparent permeability coefficient (Papp, [cm/s]) was calculated by measuring the rates of passive transfer of the paracellular pathway marker Lucifer yellow (LY) as previously described. ^39 BeWo monolayers with verified tightness were selected after 7 days of culturing on Transwell® membranes and randomly assigned to leucine transfer time courses and inhibition experiments. […] Radioactivity was quantified using Tri‐carb 2100TR Liquid Scintillation Counter (PerkinElmer).
FIGURE 5 Relevance of LAT1 and System L inhibition in leucine transfer across the placental barrier in vitro. A, Leucine transfer across a tight BeWo monolayer was measured from the apical (ie upper compartment) towards the basal (ie lower compartment) side during 6 h using the Transwell® system. […]

Caco-2 cells = tested on: Caco-2 cells; design: method as in PMID 21914964; settings: cited from earlier work
[5] = 167 µmol/L leucine, Na+-free Hank's buffer, read-out: EC50 of leucine uptake inhibition
[6] = 167.2 µmol/L leucine, four-parameter fit, read-out: EC50 (best-fit value in Figure 4)
[7] = BeWo-CTB, 167 µmol/L leucine, Na+-free Hank's buffer, read-out: EC50 of leucine uptake inhibition
[8] = BeWo-CTB, 167.2 µmol/L leucine, four-parameter fit, read-out: EC50 (best-fit value in Figure 4)

Chain of LAT1/LAT2 (System L transporters) in BeWo-CTB cells (Q01650 whole entry): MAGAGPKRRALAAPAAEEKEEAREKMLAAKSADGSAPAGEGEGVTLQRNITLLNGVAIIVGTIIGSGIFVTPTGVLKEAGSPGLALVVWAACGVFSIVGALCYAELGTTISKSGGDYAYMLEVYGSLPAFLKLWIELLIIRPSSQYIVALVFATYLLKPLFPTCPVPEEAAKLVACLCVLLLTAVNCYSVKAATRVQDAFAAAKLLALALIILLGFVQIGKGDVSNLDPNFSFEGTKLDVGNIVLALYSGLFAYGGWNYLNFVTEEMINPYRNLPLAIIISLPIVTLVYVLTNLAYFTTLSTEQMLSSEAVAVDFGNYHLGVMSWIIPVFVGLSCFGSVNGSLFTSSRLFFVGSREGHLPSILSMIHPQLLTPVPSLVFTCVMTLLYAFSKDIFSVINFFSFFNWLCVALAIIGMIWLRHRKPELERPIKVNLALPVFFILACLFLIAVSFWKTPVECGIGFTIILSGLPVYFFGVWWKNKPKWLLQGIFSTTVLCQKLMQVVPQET
Chain of LAT1/LAT2 (System L transporters) in BeWo-CTB cells (P08195 103-630 partner): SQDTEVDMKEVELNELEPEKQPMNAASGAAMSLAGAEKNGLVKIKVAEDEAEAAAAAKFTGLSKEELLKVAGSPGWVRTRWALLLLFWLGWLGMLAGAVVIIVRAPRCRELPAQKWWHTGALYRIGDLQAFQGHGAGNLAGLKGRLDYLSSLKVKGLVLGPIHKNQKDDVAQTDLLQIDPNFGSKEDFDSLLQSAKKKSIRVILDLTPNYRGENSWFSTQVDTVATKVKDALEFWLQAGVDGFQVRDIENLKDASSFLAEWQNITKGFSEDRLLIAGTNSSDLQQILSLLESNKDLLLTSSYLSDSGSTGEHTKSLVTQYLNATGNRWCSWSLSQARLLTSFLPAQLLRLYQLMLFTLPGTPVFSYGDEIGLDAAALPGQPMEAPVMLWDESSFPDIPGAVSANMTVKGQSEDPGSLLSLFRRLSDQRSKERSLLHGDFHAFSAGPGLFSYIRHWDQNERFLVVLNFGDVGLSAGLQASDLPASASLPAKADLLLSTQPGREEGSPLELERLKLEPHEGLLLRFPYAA
Chain of SLC7 transporters in HT-29 cells (Q01650 whole entry): as the sequence (Q01650 whole entry) above
Chain of SLC7 transporters in HT-29 cells (P08195 102-630 partner): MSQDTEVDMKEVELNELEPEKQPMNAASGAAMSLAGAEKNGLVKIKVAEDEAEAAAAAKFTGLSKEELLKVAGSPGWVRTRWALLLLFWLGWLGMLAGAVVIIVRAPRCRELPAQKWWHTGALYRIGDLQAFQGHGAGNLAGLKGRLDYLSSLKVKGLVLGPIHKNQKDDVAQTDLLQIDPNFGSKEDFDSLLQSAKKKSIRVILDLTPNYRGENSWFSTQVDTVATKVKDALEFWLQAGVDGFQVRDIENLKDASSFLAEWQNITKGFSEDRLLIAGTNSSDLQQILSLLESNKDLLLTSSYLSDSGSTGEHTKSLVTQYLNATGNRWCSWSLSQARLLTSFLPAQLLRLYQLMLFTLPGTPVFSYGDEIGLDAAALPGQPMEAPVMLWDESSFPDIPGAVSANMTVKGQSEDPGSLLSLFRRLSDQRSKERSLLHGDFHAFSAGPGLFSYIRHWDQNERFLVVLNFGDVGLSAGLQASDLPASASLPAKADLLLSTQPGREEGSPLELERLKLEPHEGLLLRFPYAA

extent of leucine uptake inhibition ([3]; 167µM leucine)	EC50 ([3]; 30µM leucine) [nM]	EC50 ([3]; 167µM leucine, 3min) [nM]	EC50 [2, 7]	EC50 [2, 8] [nM]	SMILES	Bottom of dose-response fit (leucine uptake at maximal inhibition) [1] [nmol/mg protein]	Top of dose-response fit (leucine uptake) [1] [nmol/mg protein]	EC50 [1, 5]	EC50 [1, 6] [nM]	Bottom of dose-response fit (leucine uptake at maximal inhibition) ([2]; BeWo-CTB, four-parameter fit) [nmol/mg protein]	Top of dose-response fit (leucine uptake) ([2]; BeWo-CTB, four-parameter fit) [nmol/mg protein]	concentration reaching maximal inhibition (first concentration without significant difference to bottom value) [1] [µmol/L]	inhibition of leucine uptake [1]	residual leucine uptake [1] [nmol/mg protein]	further results
–	–	–	–	–	NC1(C(=O)O)CC2CCC1C2 (stereo not drawn) [BCH, 2‐amino‐2‐norbornane‐carboxylic acid]	0	9.770	442000 nM	442000	0	5.305	–	–	–	times less effective than JX009 [1]: > 100 times; EC50 ([2]; read-out: EC50 (best-fit value in Figure 4), BeWo-CTB, 167.2 µmol/L leucine, four-parameter fit): 709000 nM; EC50 ([2]; read-out: EC50 of leucine uptake inhibition, BeWo-CTB, 167 µmol/L leucine, Na+-free Hank's buffer): 709000 nM
complete leucine uptake inhibition	150	2170	3100 nM	3080	Nc1cc(COc2c(Cl)cc(C[C@H](N)C(=O)O)cc2Cl)c2oc(-c3ccccc3)nc2c1 [JPH203]	3.758	8.593	2550 nM and 2600 nM	–	0.716	3.888	10	56.3% and 56%	3.8	permeability (membrane and cell layer) (Caco-2 cells): has been shown
complete leucine uptake inhibition	210	730	800 nM	799	COc1ccc(-c2nc3cc(N)cc(COc4c(Cl)cc(C[C@H](N)C(=O)O)cc4Cl)c3o2)cc1 [JG336]	3.212	8.534	1990 nM and 2000 nM	1990	0.622	2.673	10	62.4% and 62%	3.2	concentration required for maximal inhibition ([2]; BeWo-CTB): 1 µmol/L

SMILES	extent of leucine uptake inhibition ([3]; 167µM leucine)	EC50 ([3]; 30µM leucine) [nM]	EC50 ([3]; 167µM leucine, 3min) [nM]	EC50 [2, 7]	EC50 [2, 8] [nM]	Bottom of dose-response fit (leucine uptake at maximal inhibition) [1] [nmol/mg protein]	Top of dose-response fit (leucine uptake) [1] [nmol/mg protein]	EC50 [1, 5]	EC50 [1, 6] [nM]	Bottom of dose-response fit (leucine uptake at maximal inhibition) ([2]; BeWo-CTB, four-parameter fit) [nmol/mg protein]	Top of dose-response fit (leucine uptake) ([2]; BeWo-CTB, four-parameter fit) [nmol/mg protein]	concentration reaching maximal inhibition (first concentration without significant difference to bottom value) [1] [µmol/L]	inhibition of leucine uptake [1]	residual leucine uptake [1] [nmol/mg protein]	further results
CN(C)c1ccc(-c2cccc(Oc3cccc(C[C@H](N)C(=O)O)c3)c2)cn1 [JX009]	complete leucine uptake inhibition	600	3760	3900 nM and < 4000 nM	3860	1.093	8.426	2350 nM and 2300 nM	2350	0.774	4.066	10	87%	–	inhibition of leucine uptake ([2]; BeWo-CTB (regardless of differentiation stage)): 87%; decrease of intracellular 3H-leucine content of BeWo monolayer ([4]; 10 µM): no effect; decrease of intracellular 3H-leucine content of BeWo monolayer ([4]; 10 µmol/L, end of transfer experiment (6 hours)): intracellular leucine retention; also recorded: unchanged
